From patent publication USRE39591E1, “6-O-substituted ketolides having antibacterial activity” (Abbott Laboratories, priority 1996, dated 2007)

Test system: up to 32 different microorganisms
Test: in vitro antibacterial activity (MIC), agar dilution on Brain Heart Infusion (BHI) agar with Steers replicator
Assay type: cell-based
Conditions: unit assumed
Description: Representative compounds of the present invention were assayed in vitro for antibacterial activity as follows: Twelve petri dishes containing successive aqueous dilutions of the test compound mixed with 10 mL of sterilized Brain Heart Infusion (BHI) agar (Difco 0148-01-5) were prepared. Each plate was inoculated with 1:100 (or 1:10 for slow-growing strains, such as Micrococcus and Streptococcus) dilutions of up to 32 different microorganisms, using a Steers replicator block. The inoculated plates were incubated at 35°-37° C. for 20 to 24 hours. In addition, a control plate, using BHI agar containing no test compound, was prepared and incubated at the beginning and end of each test.
An additional plate containing a compound having known susceptibility patterns for the organisms being tested and belonging to the same antibiotic class as the test compound was also prepared and incubated as a further control, as well as to provide test-to-test comparability. Erythromycin A was used for this purpose.
After incubation, each plate was visually inspected. The minimum inhibitory concentration (MIC) was defined as the lowest concentration of drug yielding no growth, a slight haze, or sparsely isolated colonies on the inoculum spot as compared to the growth control.

[1] = Candida albicans CCH 442 (code TT)
[2] = Enterococcus faecism ATCC 8043 (code II)
[3] = Escherichia coli DC-2 (code SS)
[4] = Escherichia coli JUHL (code QQ)
[5] = Haemophilis influenzae DILL AMP R (code WW)
[6] = Micrococcus luteus ATCC 4698 (code PP)
[7] = Micrococcus luteus ATCC 9341 (code OO)
[8] = Mycobacterium smegmatis ATCC 114 (code UU)
[9] = Nocardia Asteroides ATCC9970 (code VV)
[10] = Staphylococcus aureus 1775 (code GG)
[11] = Staphylococcus aureus A5177 (code BB)
[12] = Staphylococcus aureus A-5278 (code CC)
[13] = Staphylococcus aureus ATCC 6538P (code AA)
[14] = Staphylococcus aureus CMX 553 (code FF)
[15] = Staphylococcus aureus CMX 642A (code DD)
[16] = Staphylococcus aureus NCTC10649M (code EE)
[17] = Staphylococcus epidermidis 3519 (code HH)
[18] = Streptococcus Pneumonia 5649 (code ZZA)
[19] = Streptococcus Pneumonia 5979 (code ZZ)
[20] = Streptococcus Pneumonia ATCC6303 (code XX)
[21] = Streptococcus Pneumonia GYR 1171 (code YY)
[22] = Streptococcus agalactiae CMX 508 (code KK)
[23] = Streptococcus bovis A-5169 (code JJ)
[24] = Streptococcus pyogenes 930 (code MM)
[25] = Streptococcus pyogenes EES61 (code LL)
[26] = Streptococcus pyogenes PIU 2548 (code NN)

For `CCC1OC(=O)C(C)C(=O)C(C)C(OC2OC(C)CC(N(C)C)C2O)C(C)(OCC=Cc2cccc3c([N+](=O)[O-])cccc23)CC(C)C(=O)C(C)C2NC(=O)OC12C` (stereo not drawn) [Example 281, Compound of Formula (IX): L is CO, T is NH2, R is —CH2CH═CH-(5-nitronaphthyl)], the MIC (organism code AA) was 0.78 µg/mL, the MIC (organism code BB) was 0.78 µg/mL and the MIC (organism code CC) was > 100 µg/mL. The MIC (organism code DD) was 0.78 µg/mL, the MIC (organism code EE) was 0.78 µg/mL and the MIC (organism code FF) was 0.78 µg/mL. For the same molecule, the MIC (organism code GG) was > 100 µg/mL, the MIC (organism code HH) was 0.78 µg/mL and the MIC (organism code II) was 0.39 µg/mL. For the same molecule, the MIC (organism code JJ) was 0.05 µg/mL, the MIC (organism code KK) was 0.1 µg/mL and the MIC (organism code LL) was 0.1 µg/mL. For the same molecule, the MIC (organism code MM) was 50 µg/mL, the MIC (organism code NN) was 0.39 µg/mL and the MIC (organism code OO) was 0.2 µg/mL. The MIC (organism code PP) was 0.78 µg/mL, the MIC (organism code QQ) was > 100 µg/mL and the MIC (organism code RR) was 3.1 µg/mL. The MIC (organism code SS) was > 100 µg/mL, the MIC (organism code TT) was > 100 µg/mL and the MIC (organism code UU) was 3.1 µg/mL. The MIC (organism code VV) was 3.1 µg/mL, the MIC (organism code WW) was 32 µg/mL and the MIC (organism code XX) was 0.25 µg/mL. For the same molecule, the MIC (organism code YY) was 0.25 µg/mL, the MIC (organism code ZZ) was 64 µg/mL and the MIC (organism code ZZA) was 1 µg/mL.
In the case of `CC[C@H]1OC(=O)[C@H](C)C(=O)[C@H](C)[C@@H](O[C@@H]2O[C@H](C)C[C@H](N(C)C)[C@H]2O)[C@@](C)(OCC#CBr)C[C@@H](C)C(=O)[C@H](C)[C@H]2NC(=O)O[C@@]21C` [Example 258, Compound of Formula (IX): L is CO, T is NH, R is —CH2—C≡C—Br], the MIC (organism code AA) is reported as 0.78 µg/mL, the MIC (organism code BB) is reported as 0.39 µg/mL and the MIC (organism code CC) is reported as > 100 µg/mL. The MIC (organism code DD) was 0.78 µg/mL, the MIC (organism code EE) was 0.39 µg/mL and the MIC (organism code FF) was 0.78 µg/mL. The MIC (organism code GG) was > 100 µg/mL, the MIC (organism code HH) was 0.78 µg/mL and the MIC (organism code II) was 0.39 µg/mL. It also gave an MIC (organism code JJ) of 0.05 µg/mL, an MIC (organism code KK) of 0.1 µg/mL and an MIC (organism code LL) of 0.05 µg/mL. For the same molecule, the MIC (organism code MM) was > 100 µg/mL, the MIC (organism code NN) was 0.2 µg/mL and the MIC (organism code OO) was 0.1 µg/mL. The MIC (organism code PP) was 0.39 µg/mL, the MIC (organism code QQ) was > 100 µg/mL and the MIC (organism code RR) was 0.78 µg/mL. The MIC (organism code SS) was > 100 µg/mL, the MIC (organism code TT) was > 100 µg/mL and the MIC (organism code UU) was 12.5 µg/mL. For the same molecule, the MIC (organism code VV) was 0.39 µg/mL, the MIC (organism code WW) was 32 µg/mL and the MIC (organism code XX) was 0.03 µg/mL. The MIC (organism code YY) was 0.03 µg/mL, the MIC (organism code ZZ) was > 128 µg/mL and the MIC (organism code ZZA) was 0.125 µg/mL.
In the case of `C=CCO[C@@]1(C)C[C@@H](C)C(=O)[C@H](C)[C@H]2N(C)C(=O)O[C@]2(C)[C@@H](CC)OC(=O)[C@H](C)C(=O)[C@H](C)[C@H]1O[C@@H]1O[C@H](C)C[C@H](N(C)C)[C@H]1O` [Example 179, Compound of Formula (IX): L is CO, T is N(CH3), R is —CH2CH═CH2], the MIC [1] is reported as > 100 µg/mL, the MIC [2] is reported as 1.56 µg/mL and the MIC [3] is reported as > 100 µg/mL. For the same molecule, the MIC [4] was > 100 µg/mL, the MIC (Escherichia coli SS (code RR)) was 6.2 µg/mL and the MIC [5] was > 128 µg/mL. It also gave an MIC [6] of 3.1 µg/mL, an MIC [7] of 1.56 µg/mL and an MIC [8] of 12.5 µg/mL. The MIC [9] was 3.1 µg/mL, the MIC [10] was > 100 µg/mL and the MIC [11] was 6.2 µg/mL. The MIC [12] was > 100 µg/mL, the MIC [13] was 6.2 µg/mL and the MIC [14] was 6.2 µg/mL. The MIC [15] was 6.2 µg/mL, the MIC [16] was 6.2 µg/mL and the MIC [17] was 12.5 µg/mL. The MIC [18] was 0.5 µg/mL, the MIC [19] was > 128 µg/mL and the MIC [20] was 0.5 µg/mL. The MIC [21] was 0.5 µg/mL, the MIC [22] was 0.39 µg/mL and the MIC [23] was 0.39 µg/mL. For the same molecule, the MIC [24] was > 100 µg/mL, the MIC [25] was 0.39 µg/mL and the MIC [26] was 0.78 µg/mL.
With `CC[C@H]1OC(=O)[C@H](C)C(=O)[C@H](C)[C@@H](O[C@@H]2O[C@H](C)C[C@H](N(C)C)[C@H]2O)[C@@](C)(OCC=NO)C[C@@H](C)C(=O)[C@H](C)[C@@H](O)[C@]1(C)O` [Example 5, Compound of Formula (VIII): X is O, R is —CH2CH═NOH] the MIC [1] was > 100 µg/mL, the MIC [2] was 6.2 µg/mL and the MIC [3] was > 100 µg/mL. For the same molecule, the MIC [4] was > 100 µg/mL, the MIC (Escherichia coli SS (code RR)) was 6.2 µg/mL and the MIC [5] was > 128 µg/mL. For the same molecule, the MIC [6] was 6.2 µg/mL, the MIC [7] was 0.78 µg/mL and the MIC [8] was > 100 µg/mL. For the same molecule, the MIC [9] was 6.2 µg/mL, the MIC [10] was > 100 µg/mL and the MIC [11] was 6.2 µg/mL. The MIC [12] was > 100 µg/mL, the MIC [13] was 6.2 µg/mL and the MIC [14] was 12.5 µg/mL. For the same molecule, the MIC [15] was 12.5 µg/mL, the MIC [16] was 12.5 µg/mL and the MIC [17] was 6.2 µg/mL. For the same molecule, the MIC [18] was 16 µg/mL, the MIC [19] was > 128 µg/mL and the MIC [20] was 8 µg/mL. It also gave an MIC [21] of 4 µg/mL, an MIC [22] of 1.56 µg/mL and an MIC [23] of 1.56 µg/mL. The MIC [24] was > 100 µg/mL, the MIC [25] was 3.1 µg/mL and the MIC [26] was 6.2 µg/mL.
